Measurements from patent US7148194B2, “Method to increase fibronectin” (Kimberly-Clark Worldwide, Inc., priority 2002, dated 2006).
Entries after “also recorded” stand apart in the source; their conditions may differ. Residues, ends and D or L forms follow the SMILES beside them.

Assays:
[1] = system: normal human dermal fibroblasts (NHDF); experiment: NHDF migration assay, 48-well chemotaxis chamber; type: cell-based; conditions: for induction of NHDF migration: concentrations ranging from 1000 μg/mL to 10 ng/mL (data not shown)
Description: Normal, human dermal fibroblasts (NHDF) were obtained from Biowhittaker, (Walkersville, Md.) and propagated in T75 flasks in FBM media (500 mL, Biowhittaker) containing insulin, hFGF-b, GA-1000, and fetal bovine serum (10 mL) for up to 12 passages. For the migration assay, NHDF were washed once with 10 mL of Hank's buffered saline solution (HBSS). Three milliliters of trypsin (0.25%) in EDTA were added to the T75 flask for no more than five minutes to remove NHDF from the flask. NHDF in trypsin solution were added to 7 mL of FBM with no supplements added. NHDF were centrifuged for 5 minutes, and the supernatant was removed. NHDF were resuspended in 10 mL of FBM for counting. NHDF were centrifuged for another 5 minutes, and the supernatant was removed. NHDF were resuspended at 1×10^6 cells per mL in FBM without supplements. It was important to use FBM media only in migration assays because the complete media contains fibroblast growth factor and serum, both of which will trigger migration of fibroblasts.
Peptides were synthesized and purified by the Microchemical Facility at Emory University or by SigmaGenesis. All peptides were analyzed by mass spectrometry after HPLC to assess purity. Approximately 0.5–2.0 milligrams of peptide were used to make fresh stock solutions (5 mg/mL in PBS) for each migration assay. The peptide stock solutions in PBS were used to make more dilute solutions (1 mg/mL, 100 μg/mL, 10 μg/mL, 1 μg/mL, 100 ng/mL, 10 ng/mL) in FBM (without supplements) for the migration assays.
Polyvinylpyrrolidone-free polycarbonate membranes with […] pores (Neuroprobe, Inc., Gaithersburg, Md.) were washed with 90% ethanol for 15 minutes and rinsed four times with deionized water. Membranes were then placed into a glass dish containing an aqueous solution of 5 μg/mL gelatin. The glass dish was placed in to a water bath at about 90° C. for one hour. Membranes were removed from the gelatin solution and were allowed to dry for one hour in the 37° C. incubator.
A 48-well chemotaxis chamber (Neuroprobe, Inc., Gaithersburg, Md.) (see FIG. 20) was used for the migration assays. Twenty-eight μL of each test solution were added to the bottom wells of the chamber in quadruplicate. A gelatin-treated membrane was placed carefully on top of the bottom wells. The gasket and top part of chamber were then placed carefully on top of the membrane. The apparatus was tightened using six thumbscrews. A solution of NHDF containing an estimated cell density (2×10^5 cells per mL) was made by adding 320 μL of the 1×10^6 cells per mL solution to 1.28 mL of FBM (no supplements). Fifty microliters of the 2×10^5 cells per mL NHDF solution were added to the top part of each well in the chamber. The chamber was placed in the incubator at 37° C./5% CO2 for three hours. The chamber was removed, the thumbscrews were removed, and the chamber was turned upside down on a paper towel. […] The membrane was carefully removed. […] The membrane was fixed with methanol and stained using the Diff-Quik Staining Solutions I and II. The nuclei of NHDF are stained purple. The membrane was mounted on a glass slide using cedarwood immersion oil and a cover slip. […] The average number of migrated NHDF in the negative control was subtracted from the experimental (peptide) data and positive control data.

[2] = system: EpiDerm skin model; experiment: viability assay (MTT) in EpiDerm skin model; type: cell-based; conditions: peptide at 500 μM and 2 mM, relative to PBS control
Description: The sample containers were transferred to 6 well plates that contained fresh media. All peptides were dissolved in PBS at a final concentration of 10 mM, and 100 μL each peptide solution was pipetted onto the surface of the Epiderm sample container. Incubation was continued for 12 hours at 37° C., 5% CO2. After the incubation period, the sample containers were washed three times with PBS and the sample containers were transferred to a 24 well plate that contained 300 μL of MTT assay media per well (MTT concentration was 1 mg/mL). The colorimetric assay was allowed to develop for three hours (incubation at 37° C., 5% CO2). Sample containers were then transferred to a 24 well culture plate that contained 2 mL of isopropanol per well. Extraction of the colored precipitate occurred over a period of four hours at room temperature. Absorbance readings were taken at 570 nm and 650 nm for each sample. The percent viability of each sample relative to a PBS control was calculated as: 100×(OD570^sam−OD650^sam)/(OD570^con−OD650^con) (6) Routinely, the peptide sample was assayed in triplicate. Results

[3] = system: neutrophils; experiment: neutrophil migration assay, transwell plate; type: cell-based, human; conditions: 10 nM, positive control
Description: Peptides were synthesized and purified by the Microchemical Facility at Emory University or by SigmaGenesis. All peptides were analyzed by mass spectrometry after HPLC to assess purity. Approximately 0.5–2.0 milligrams of peptide were used to make fresh stock solutions (5 mg/mL in HBSS/HSA) for each migration assay. The peptide stock solutions were used to make more dilute solutions (1 mg/mL, 100 μg/mL, 10 μg/mL, 1 μg/mL, 100 ng/mL, and 10 ng/mL) in HBSS/HSA for the assays.
Neutrophils were isolated from human blood (collected in Vacutainer™ tubes containing EDTA) by layering the blood/EDTA mixture (about 20 mL) on top of two layers of Histopaque™ 1119 (bottom layer, 18 mL) and 1077 (top layer, 7 mL) in 50 mL Falcon tubes. The tubes were centrifuged at 1800 rpm for 30 minutes (no brake). Four layers appeared in the tubes after the spin (from top to bottom layers): plasma, 1077, 1119, and red blood cells. The buffy coat between the plasma and 1077 layers contained lymphocytes, monocytes, and some platelets. The plasma layer, the buffy coat, and most of the 1077 layer was removed and discarded. The 1119 layer that contained the neutrophils was removed and was placed into a clean 50 mL tube. Dulbecco's Phosphate Buffered Saline (DPBS) was added to bring the volume to 50 mL. The cells were centrifuged for 15 minutes at 2100 rpm. The cells were resuspended in 10 mL of DPBS, transferred to 15 mL tubes, and centrifuged again for 10 minutes at 2000 rpm. This process was repeated to wash the cells a second time. After the supernatant was removed, the red blood cells were lysed by adding 6 mL of cold sterile water to each 15 mL of supernatant. Cells were mixed in the water for only 30 seconds. Six mL of cold 2% sterile saline was then added. Cells were centrifuged again for 10 minutes at 2000 rpm. The red supernatant (containing hemoglobin from red blood cells) was removed. This process of red blood cell lysis was repeated two more times to remove all of the red blood cells. After most of the red blood cells were removed, neutrophils were resuspended in 10 mL of HBSS/HSA for counting with trypan blue.
A neutrophil migration assay was performed in duplicate using a 24-well transwell plate (3 μm pore size for membrane). Transwell membranes were pre-moistened with 20–40 μL of HBSS/HSA (0.04–0.4%). Chemotactic solutions (500 μL) were added to the bottom of each well. […] Transwells were then placed into the chemotactic solutions. The plate was placed into the incubator (37° C., 5% CO2) for one hour. Cells that migrated through the membrane were counted using trypan blue.
In the neutrophil migration experiments, neutrophils that were isolated were approximately 95% viable. […]

Compound | induction of NHDF migration [1] | NHDF migration, percent of the plasma fibronectin positive control ([1]; 100 μg/mL peptide) [%] | NHDF migration, percent of the plasma fibronectin positive control ([1]; 1000 μg/mL peptide) [%] | total average viability [2] [%] | further results
TLKAMRKPRCGNPDVAN (listed as Homo sapiens) [Peptide 17-mer] | not chemotactic to NHDF at any concentration; also recorded: did not induce NHDF migration; also recorded: no effect on fibroblast mobility | – | – | – | –
N=C(N)NCCC[C@H](NC(=O)[C@@H]1CCCN1C(=O)[C@H](Cc1ccccc1)NC(=O)[C@H](Cc1ccccc1)NC(=O)[C@H](CC(N)=O)NC(=O)[C@H](Cc1ccc(O)cc1)NC(=O)[C@@H](N)CC(N)=O)C(=O)N[C@@H](CCCCN)C(=O)N1CCC[C@H]1C(=O)N[C@@H](CCCCN)C(=O)O [Peptide 10-mer] (H-NYNFFPRKPK-OH; N-terminus and C-terminus assumed) | – | 11±0 | 30±2 | 89.6 | –
TMRKPRCGNPDVAN (listed as Homo sapiens) [Peptide 14-mer] | not chemotactic to NHDF at any concentration; also recorded: did not induce NHDF migration; also recorded: no effect on fibroblast mobility | – | – | – | –
IL-8: positive control for neutrophil migration, 10 nM [reference compound] | – | – | – | – | Percent Neutrophil Migration exp. 2 ([3]; 0.04% HSA): 51%; Percent Neutrophil Migration exp. 1 ([3]; 0.4% HSA): 81%
CC(C)[C@H](NC(=O)[C@H](CC(=O)O)NC(=O)[C@@H]1CCCN1C(=O)[C@H](CC(N)=O)NC(=O)CNC(=O)[C@H](CS)NC(=O)[C@H](CCCNC(=N)N)NC(=O)[C@@H]1CCCN1)C(=O)N[C@@H](C)C(=O)O [Peptide 9-mer] (H-PRCGNPDVA-OH; N-terminus and C-terminus assumed) | – | 16±10 | 32±2 | 95.8 | –
